Experimental data taken from publication PMC7432809, “Antimicrobial Activity of Small Synthetic Peptides Based on the Marine Peptide Turgencin A: Prediction of Antimicrobial Peptide Sequences in a Natural Peptide and Strategy for Optimization of Potency” (International Journal of Molecular Sciences, 2020).
Where a SMILES comes first, the peptide text is derived from it. Bridges are numbered along the chain shown (N, C = ends).

Columns and labels:
Bacillus megaterium = test: microbe, parasite or virus in culture; assay type: cell-based; conditions: Bacillus megaterium; MH medium, 24 h at 35 °C, OD 595 nm <10% of growth control; triplicates
Description: (§1) The synthesized peptides were screened for antibacterial activity against five strains of G+ bacteria: B. subtilis (Bs, ATCC 23857), C. glutamicum (Cg, ATCC 13032), S. aureus (Sa, ATCC 9144), Micrococcus luteus (Ml), B. megaterium (Bm) (the last two were obtained from professor Olaf B. Styrvold, UiT The Arctic University of Norway).
(§2) Two strains of G- bacteria, P. aeruginosa (Pa, ATCC 27853) and E. coli (Ec, ATCC 25922), were also used. Cultures stored at -80 °C in glycerol were transferred to Müller–Hinton plates (MH, Difco Laboratories, Detroit, MI, USA) and incubated for 24 h at 35 °C. Colonies of each strain were transferred to 5 mL liquid MH medium and left shaking (600 rpm) at room temperature overnight. An aliquot of actively growing bacteria (20 µL) was inoculated in 5 mL MH medium and left shaking for 2 h at room temperature. In order to have a sensitive bioassay, the bacterial cultures were diluted with medium to only 2.5–3 × 10^4 bacteria/mL and an aliquot of 50 µL was added to each well in 96 microwell plates (Thermo Fisher Scientific, Roskilde, Denmark) preloaded with peptide solution (50 µL). The antibacterial assays were performed as previously described. The microtiter plates were incubated for 24 h at 35 °C with optical density (595 nm) recorded every hour using an Envision 2103 multilabel reader, controlled by a Wallac Envision manager (PerkinElmer, Waltham, MA, USA). The minimum inhibitory concentration (MIC) was defined as the sample concentration showing an optical density less than 10% of the negative (growth) control, consisting of bacteria and MQ-H2O. Oxytetracycline (concentrations ranging from 20–0.02 µg/mL, Sigma-Aldrich) and indolicidin (concentration ranging from 200–0.2 µg/mL, Sigma-Aldrich) served as a positive (inhibition) control. The synthetic peptides were tested for antibacterial activity in concentrations ranging from 250 to 0.5 µg/mL in two-fold dilutions. All tests were performed in triplicates.

Micrococcus luteus = test: microbe, parasite or virus in culture; assay type: cell-based; conditions: Micrococcus luteus; MH medium, 24 h at 35 °C, OD 595 nm <10% of growth control; triplicates
Description: as §1, §2

Aureobasidium pullulans = test: microbe, parasite or virus in culture; assay type: cell-based; conditions: potato dextrose broth with 2% glucose, room temperature 48 h, OD 600 nm, >90% inhibition; triplicate
Description: (§3) StAMP-1–11 were screened for antifungal activity against C. albicans (Ca, ATCC 10231), A. pullulans (Ap) and Rhodotorula sp. (Rh) (the last two were obtained from professor Arne Tronsmo, The Norwegian University of Life Sciences, Ås, Norway). The antifungal assay was performed as previously described with a few modifications. Briefly, fungal spores were dissolved in potato dextrose broth (Difco Laboratories) with 2% D(+)-glucose (Merck, Darmstadt, Germany) to a concentration of 4 × 10^5 spores/mL. The spores (50 µL) were inoculated on 96 microwell plates (Thermo Fisher Scientific) containing the synthetic peptides (50 µL) and controls (water or antibiotic). The peptides were diluted in MQ-H2O at final concentrations ranging from 250–3.9 µg/mL in two-fold serial dilutions. Triclosan (Sigma-Aldrich, Steinheim, Germany) was used as a positive (antifungal) control (32–0.25 µg/mL), and MQ-H2O as a negative (growth) control. Cultures were grown in room temperature for 24 h (Ca) and 48 h (Ap and Rh). Growth inhibition was determined by measuring OD values at 600 nm by a microplate reader (Synergy H1 Hybrid Multi-Mode Reader, BioTek, Winooski, VT, USA). […] All experiments were done in triplicate.

[1] = system: Candida albicans (ATCC 10231); test: microbe, parasite or virus in culture; assay type: cell-based; conditions: potato dextrose broth with 2% glucose, room temperature 24 h, OD 600 nm, >90% inhibition; triplicate
Description: as §3

Rhodotorula sp. = test: microbe, parasite or virus in culture; assay type: cell-based; conditions: potato dextrose broth with 2% glucose, room temperature 48 h, OD 600 nm, >90% inhibition; triplicate
Description: as §3

[2] = system: Bacillus subtilis (ATCC 23857); conditions: turgencin A data ref Hansen et al. [24]; cited from earlier work
Source text: Table 3 Antimicrobial activities of turgencin A and the synthesized StAMP-1–11 peptides. | column: Gram-Pos / Bs

[3] = system: Corynebacterium glutamicum (ATCC 13032); conditions: turgencin A data ref Hansen et al. [24]; cited from earlier work
Source text: Table 3 Antimicrobial activities of turgencin A and the synthesized StAMP-1–11 peptides. | column: Gram-Pos / Cg

[4] = system: Staphylococcus aureus (ATCC 9144); conditions: turgencin A data ref Hansen et al. [24]; cited from earlier work
Source text: Table 3 Antimicrobial activities of turgencin A and the synthesized StAMP-1–11 peptides. | column: Gram-Pos / Sa

[5] = system: Escherichia coli (ATCC 25922); conditions: turgencin A data ref Hansen et al. [24]; cited from earlier work
Source text: Table 3 Antimicrobial activities of turgencin A and the synthesized StAMP-1–11 peptides. | column: Gram-Neg / Ec

[6] = system: Pseudomonas aeruginosa (ATCC 27853); conditions: turgencin A data ref Hansen et al. [24]; cited from earlier work
Source text: Table 3 Antimicrobial activities of turgencin A and the synthesized StAMP-1–11 peptides. | column: Gram-Neg / Pa

## CSCC[C@@H]1NC(=O)[C@H](CCCCN)NC(=O)[C@@H](NC(=O)[C@H](C)NC(=O)[C@H](C)NC(=O)[C@H](CCCCN)NC(=O)[C@@H](NC(=O)[C@H](CCCCN)NC(=O)[C@@H]2CCCN2C(=O)CN)[C@@H](C)O)CSSC[C@@H](C(=O)N[C@@H](CC(=O)O)C(=O)N[C@@H](C)C(=O)N[C@H](C(N)=O)C(C)C)NC(=O)CNC(=O)[C@H](CC(C)C)NC(=O)[C@H](CCC(=O)O)NC(=O)[C@@H]2CSSC[C@H](NC(=O)[C@H](C)NC1=O)C(=O)N[C@@H](CCCCN)C(=O)N[C@@H](CC(C)C)C(=O)N[C@@H](C)C(=O)N[C@@H]([C@@H](C)O)C(=O)N[C@H]1CSSC[C@H](NC(=O)[C@H](CCCCN)NC(=O)[C@H](Cc3c[nH]c4ccccc34)NC(=O)CNC(=O)CNC(=O)[C@@H]3CCCN3C(=O)[C@H](CCCCN)NC(=O)[C@H](CCCCN)NC(=O)CNC1=O)C(=O)N[C@@H](CCCCN)C(=O)N[C@@H](CC(C)C)C(=O)N2 [Turgencin A] (H-GPKTKAACKMACKLATCGKKPGGWKCKLCELGCDAV-NH2; disulfide 8-33, 12-29, 17-26; N-terminus assumed)
Bacillus megaterium
  Antimicrobial Activity (MIC) Bm: 0.5 µg/mL
Micrococcus luteus
  Antimicrobial Activity (MIC) Ml: 8.0 µg/mL
Aureobasidium pullulans
  Antimicrobial Activity (MIC) Ap: 92.6 µg/mL
[1]
  Antimicrobial Activity (MIC) Ca: 46.3 µg/mL
Rhodotorula sp.
  Antimicrobial Activity (MIC) Rh: 23.2 µg/mL
[2]
  Antimicrobial Activity (MIC) Bs: 1.5 µg/mL
[3]
  Antimicrobial Activity (MIC) Cg: 1.5 µg/mL
[4]
  Antimicrobial Activity (MIC) Sa: 23.3 µg/mL
[5]
  Antimicrobial Activity (MIC) Ec: 3.0 µg/mL
[6]
  Antimicrobial Activity (MIC) Pa: 5.9 µg/mL
